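Dose response: 5 concentrations. Exposure: 48 h. Format: 96-well plates. Endpoint: linear interpolation; highest concentration if not reached. GI50 is the concentration that inhibits growth by half.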 Activity calls are given as the source filed them. Cut-off read from the data, not from the text of the source: active = GI50 up to about 1.1 µM and inactive = higher.
What was measured:
Test in all cases: NCI anticancer screen, dose series, 48 h
[1] = system: NCI/ADR-RES
[2] = system: CAKI-1
[3] = system: BT-549
[4] = system: A549
[5] = system: SW-620
[6] = system: HOP-92
[7] = system: MDA-MB-435
[8] = system: KM12
[9] = system: UACC-62
[10] = system: 786-0
[11] = system: CCRF-CEM
[12] = system: SK-OV-3
[13] = system: SR
[14] = system: UACC-257
[15] = system: OVCAR-4
[16] = system: OVCAR-3
[17] = system: IGROV-1
[18] = system: M14
[19] = system: MDA-N
[20] = system: HCC 2998

| Compound | GI50 [1] | GI50 [2] | GI50 [3] | GI50 [4] | GI50 [5] | GI50 [6] | GI50 [7] | GI50 [8] | GI50 [9] | GI50 [10] | GI50 [11] | GI50 [12] | GI50 [13] | GI50 [14] | GI50 [15] | GI50 [16] | GI50 [17] | GI50 [18] | GI50 [19] | GI50 [20] |
| --- | --- | --- | --- | --- | --- | --- | --- | --- | --- | --- | --- | --- | --- | --- | --- | --- | --- | --- | --- | --- |
| O=C(O)c1ccc(OCc2ccccc2)c(Cl)c1 | > 100 µM (inactive) | 20.2 µM (inactive) | > 100 µM (inactive) | > 100 µM (inactive) | > 100 µM (inactive) | > 100 µM (inactive) | 80.5 µM (inactive) | 30.3 µM (inactive) | > 100 µM (inactive) | > 100 µM (inactive) | > 100 µM (inactive) | > 100 µM (inactive) | > 100 µM (inactive) | > 100 µM (inactive) | 14 µM (inactive) | > 100 µM (inactive) | > 100 µM (inactive) | > 100 µM (inactive) | > 100 µM (inactive) | – |
| Cc1ccc(-c2nc(-c3cnccn3)n(C3OC(CO)C(O)C(O)C3O)n2)cc1 (configuration not stated) | > 100 µM (inactive) | – | > 100 µM (inactive) | > 100 µM (inactive) | > 100 µM (inactive) | > 100 µM (inactive) | > 100 µM (inactive) | > 100 µM (inactive) | > 100 µM (inactive) | > 100 µM (inactive) | > 100 µM (inactive) | – | > 100 µM (inactive) | > 100 µM (inactive) | > 100 µM (inactive) | > 100 µM (inactive) | > 100 µM (inactive) | > 100 µM (inactive) | > 100 µM (inactive) | > 100 µM (inactive) |
| Cn1c2ccccc2c2c3c(c4c5ccccc5n(C)c4c21)C(=O)N(Cc1ccccc1)C3=O | > 100 µM (inactive) | > 100 µM (inactive) | > 100 µM (inactive) | 90.2 µM (inactive) | > 100 µM (inactive) | > 100 µM (inactive) | > 100 µM (inactive) | > 100 µM (inactive) | > 100 µM (inactive) | > 100 µM (inactive) | > 100 µM (inactive) | > 100 µM (inactive) | 31.8 µM (inactive) | > 100 µM (inactive) | > 100 µM (inactive) | – | 53.3 µM (inactive) | > 100 µM (inactive) | > 100 µM (inactive) | > 100 µM (inactive) |
| CCN(CC)C1=Nc2ccccc2-n2ccnc2C1 | > 100 µM (inactive) | > 100 µM (inactive) | > 100 µM (inactive) | > 100 µM (inactive) | > 100 µM (inactive) | > 100 µM (inactive) | > 100 µM (inactive) | > 100 µM (inactive) | > 100 µM (inactive) | > 100 µM (inactive) | > 100 µM (inactive) | – | > 100 µM (inactive) | > 100 µM (inactive) | > 100 µM (inactive) | > 100 µM (inactive) | > 100 µM (inactive) | > 100 µM (inactive) | > 100 µM (inactive) | > 100 µM (inactive) |
| CCCCn1c(N)c(-c2nc3ccccc3o2)sc1=S | 18.2 µM (inactive) | 13.7 µM (inactive) | 26.3 µM (inactive) | 13.6 µM (inactive) | – | 45.5 µM (inactive) | 12.6 µM (inactive) | 12.5 µM (inactive) | 11.2 µM (inactive) | 17.3 µM (inactive) | 32.8 µM (inactive) | 22.7 µM (inactive) | 17.7 µM (inactive) | 60.7 µM (inactive) | 5.81 µM (inactive) | 16.7 µM (inactive) | 21.8 µM (inactive) | 23 µM (inactive) | 15.6 µM (inactive) | 36.1 µM (inactive) |
| C#CCn1c(=O)c(C)cn(/C(=C\C(=O)OCC)C(=O)OCC)c1=O | 3.86 µM (inactive) | 1.36 µM (inactive) | 9.71 µM (inactive) | 20 µM (inactive) | 1.67 µM (inactive) | 2.12 µM (inactive) | 5.16 µM (inactive) | 30.1 µM (inactive) | 10.1 µM (inactive) | 2.82 µM (inactive) | 0.435 µM (active) | 28.6 µM (inactive) | 2.96 µM (inactive) | 14.7 µM (inactive) | 2.69 µM (inactive) | 6.17 µM (inactive) | 8.63 µM (inactive) | 4.19 µM (inactive) | 7.5 µM (inactive) | – |
| CSCSSC | > 100 µM (inactive) | > 21.6 µM (inactive) | > 100 µM (inactive) | > 100 µM (inactive) | 49.4 µM (inactive) | > 75.5 µM (inactive) | > 78 µM (inactive) | > 57.3 µM (inactive) | 61.7 µM (inactive) | > 100 µM (inactive) | 40.6 µM (inactive) | 74.6 µM (inactive) | 30.7 µM (inactive) | > 100 µM (inactive) | – | > 100 µM (inactive) | > 79.6 µM (inactive) | > 100 µM (inactive) | > 93.3 µM (inactive) | > 100 µM (inactive) |
